{"source": "patent US20090004145A1", "about": "“COMPOSITIONS AND METHODS INVOLVING GENE THERAPY AND PROTEASOME MODULATION” (priority 2006, published 2009)", "key": {"[1]": {"conditions": "in vivo; cited from earlier work"}, "[2]": {"tested_on": "chronic myelogenous leukemia", "conditions": "adults with previously untreated chronic myelogenous leukemia; cited from earlier work"}, "2008 cells [3]": {"tested_on": "2008 cells", "assay": "Tumor cell killing, trypan blue assay", "assay_type": "cell-based, human", "conditions": "CDDP 25 μM, vector 3000 vp/cell, 72 h", "experimental": "FIG. 3. Ad-mda7 plus CDDP treatment sensitizes CDDP-resistant tumor cells. CDDP-resistant (2008/C*13 R) and sensitive (2008) ovarian tumor cells were plated in six-well plates and treated with PBS, CDDP (25 μM) Ad-luc, Ad-mda7 (3000 vp/cell), Ad-mda7 plus CDDP or Ad-luc plus CDDP. Treatment schedule was as follows: pretreatment with CDDP for 1 h, washed with PBS to remove any residual CDDP and then infect with Ad-mda7 for 3 h in serum free medium followed by replenishment of complete medium. Cells were harvested at 72 h after treatment and number of dead cells counted by the trypan blue assay.\nFIG. 8. CDDP-resistant tumor cells are more sensitive to Ad-mda7. […] Cells were harvested on day 3 and day 5 after treatment and number of dead cells counted by the trypan blue assay and analyzed for apoptotic markers by western blotting. […]\nNext, CDDP-resistant (2008/C*13 R) and sensitive (2008) ovarian tumor cells were plated in six-well plates and treated with PBS, CDDP (25 μM) Ad-luc, Ad-mda7 (3000 vp/cell), Ad-mda7 plus CDDP or Ad-luc plus CDDP. […] Cells were harvested at 72 h after treatment and number of dead cells counted by the trypan blue assay.\nCDDP-Resistant Tumor Cells are More Sensitive to Ad-mda7. […] Cells were harvested on day 3 and day 5 after treatment and number of dead cells counted by the trypan blue assay and analyzed for apoptotic markers by western blotting. […]"}, "2008 cells [4]": {"tested_on": "2008 cells", "assay": "XTT cell viability assay of CDDP-treated ovarian cancer cell lines", "assay_type": "cell-based, human", "conditions": "CDDP 1 h, then 72 h incubation", "experimental": "(§1) FIG. 1. Determination of IC50 values for CDDP-Treated Ovarian Cancer Cell Lines. Human ovarian tumor (2008 and 2008/C*13R) tumor cells (2×10^3) seeded in 96-well plates were treated with various doses of CDDP (0, 10, 20, 30, 60, 80, 100 μM). After 1 h of treatment, CDDP containing medium was removed and fresh medium added to the wells. Cells were incubated for 72 h following which were subjected to XTT assay to determine cell viability. Untreated cells served as controls.\nas §1, with “Determination” for “FIG. 1. Determination”, “controls. […] (FIG. 1)” for “controls.”"}, "2008/C*13R cells": {"tested_on": "2008/C*13R cells", "assay": "XTT cell viability assay of CDDP-treated ovarian cancer cell lines", "assay_type": "cell-based, human", "conditions": "CDDP 1 h, then 72 h incubation", "experimental": "as §1\nas §1, with “Determination” for “FIG. 1. Determination”, “controls. […] (FIG. 1)” for “controls.”"}, "[5]": {"conditions": "in vivo; cited from earlier work", "remark": "listed apart in the source"}, "[6]": {"conditions": "cited from earlier work"}, "[7]": {"conditions": "15 minutes after intravenous administration; cited from earlier work"}, "multiple myeloma": {"tested_on": "multiple myeloma", "conditions": "oral administration; cited from earlier work"}, "[8]": {"conditions": "humans, intravenous administration; cited from earlier work"}, "Hodgkin's disease": {"tested_on": "Hodgkin's disease", "conditions": "cited from earlier work"}, "[9]": {"conditions": "usual clinical doses; cited from earlier work"}, "[10]": {"conditions": "cited from earlier work", "remark": "listed apart in the source"}, "[11]": {"conditions": "mice; cited from earlier work"}}, "note": "Read-outs that look alike come from different tables or passages of the source. *1 amine or outer side, *2 acyl side, *3 side chain or, on linkers, in order; H or OH if unused. Where a SMILES comes first, the peptide text is derived from it. Bridges are numbered along the chain shown (N, C = ends). Roman numbers before positions name the chains, in order. [ ]: non-standard residue; d: D form. Actinocin(9to1) = Cc1c2oc3c(C)ccc(C(=O)[*:1])c3nc-2c(C(=O)[*:2])c(N)c1=O; NMeV = CN[C@H](C(=O)O)C(C)C; Sar = CNCC(=O)O", "data": [{"molecule": "Cc1c2oc3c(C)ccc(C(=O)N[C@@H]4C(=O)N[C@H](C(C)C)C(=O)N5CCC[C@H]5C(=O)N(C)CC(=O)N(C)[C@@H](C(C)C)C(=O)O[C@@H]4C)c3nc-2c(C(=O)N[C@@H]2C(=O)N[C@H](C(C)C)C(=O)N3CCC[C@H]3C(=O)N(C)CC(=O)N(C)[C@@H](C(C)C)C(=O)O[C@@H]2C)c(N)c1=O", "note": "[Actinomycin D] (I: T[dV]P[Sar][NMeV] / II: T[dV]P[Sar][NMeV]; ester I:1-I:C, II:1-II:C; linker I:N-II:N via Actinocin(9to1))", "values": [{"measurement": "passage of the blood-brain barrier", "setting": "[1]", "value": "does not pass the blood-brain barrier"}]}, {"molecule": "CS(=O)(=O)OCCCCOS(C)(=O)=O", "note": "[Busulfan, 1,4-butanediol dimethanesulfonate]", "values": [{"measurement": "patients obtaining hematologic remission", "setting": "[2]", "value": "Approximately 90%"}]}, {"molecule": "[NH2][Pt]([NH2])([Cl])[Cl]", "note": "[CDDP, Cisplatin]", "values": [{"measurement": "percent killing", "setting": "2008 cells [3]", "value": "similar"}, {"measurement": "IC50", "setting": "2008 cells [4]", "value": 30, "unit": "µM"}, {"measurement": "IC50", "setting": "2008/C*13R cells", "value": 145, "unit": "µM"}, {"measurement": "oral absorption", "setting": "[5]", "value": "not absorbed orally"}]}, {"molecule": "CC[C@@]1(O)C(=O)OCc2c1cc1n(c2=O)Cc2cc3ccccc3nc2-1", "note": "[Camptothecin]", "values": [{"measurement": "solubility (clear yellow solution)", "setting": "[6]; camptothecin in DMSO 1N sodium hydroxide", "value": 50, "unit": "mg/mL"}, {"measurement": "storage stability", "setting": "[6]; camptothecin, 2-8° C., dry, airtight, light-resistant", "value": "at least two"}, {"measurement": "water solubility", "setting": "[6]; camptothecin", "value": "poor water-solubility"}]}, {"molecule": "O=NN(CCCl)C(=O)NCCCl", "note": "[Carmustine, 1,3bis-(2-chloroethyl)-1-nitrosourea]", "values": [{"measurement": "solubility in water", "setting": "[6]; carmustine", "value": "poorly soluble"}]}, {"molecule": "O=NN(CCCl)C(=O)NC1CCCCC1", "note": "[Lomustine, 1-(2-chloro-ethyl)-3-cyclohexyl-1 nitrosourea]", "values": [{"measurement": "ionization at a physiological pH", "setting": "[6]; lomustine", "value": "relatively unionized"}, {"measurement": "solubility in 10% ethanol", "setting": "[6]; lomustine", "value": 0.05, "unit": "mg per ml"}, {"measurement": "solubility in absolute alcohol", "setting": "[6]; lomustine", "value": 70, "unit": "mg per ml"}, {"measurement": "solubility in water", "setting": "[6]; lomustine", "value": "< 0.05", "unit": "mg per ml"}, {"measurement": "tissue levels", "setting": "[7]", "value": "comparable to plasma levels"}]}, {"molecule": "N[C@@H](Cc1ccc(N(CCCl)CCCl)cc1)C(=O)O", "note": "[Melphalan, 4-[bis(2-chloroethyl)amino]-L-phenylalanine]", "values": [{"measurement": "solubility in water", "setting": "[6]; melphalan", "value": "insoluble in water"}, {"measurement": "patients showing a favorable response", "setting": "multiple myeloma", "value": "about one third to one half"}]}, {"molecule": "CO[C@@]12[C@H](COC(N)=O)C3=C(C(=O)C(C)=C(N)C3=O)N1C[C@@H]1N[C@@H]12", "note": "[Mitomycin]", "values": [{"measurement": "heat stability", "setting": "[6]; mitomycin", "value": "heat stable"}, {"measurement": "clearance from the serum", "setting": "[8]", "value": "rapidly cleared"}]}, {"molecule": "CC[C@]1(O)C[C@@H]2CN(CCc3c([nH]c4ccccc34)[C@@](C(=O)OC)(c3cc4c(cc3OC)N(C)[C@H]3[C@@](O)(C(=O)OC)[C@H](OC(C)=O)[C@]5(CC)C=CCN6CC[C@]43[C@@H]65)C2)C1", "note": "[Vinblastine]", "values": [{"measurement": "cases with significant improvement", "setting": "Hodgkin's disease", "value": "50 to 90", "unit": "%"}]}, {"molecule": "CC[C@]1(O)C[C@H]2CN(CCc3c([nH]c4ccccc34)[C@@](C(=O)OC)(c3cc4c(cc3OC)N(C=O)[C@H]3[C@@](O)(C(=O)OC)[C@H](OC(C)=O)[C@]5(CC)C=CCN6CC[C@]43[C@@H]65)C2)C1", "note": "[Vincristine]", "values": [{"measurement": "peak concentration in plasma", "setting": "[9]", "value": "approximately 0.4 mM"}]}, {"molecule": "Bleomycin", "values": [{"measurement": "solubility in water", "setting": "[6]; bleomycin", "value": "freely soluble in water"}, {"measurement": "administered dose recovered in the urine as active bleomycin", "setting": "[10]; humans", "value": "60% to 70"}, {"measurement": "plasma or serum terminal elimination half-life", "setting": "[10]; patients with creatinine clearance <35 mL per minute, as clearance decreases", "value": "increases exponentially"}, {"measurement": "concentrations in hematopoietic tissue / bone marrow", "setting": "[11]", "value": "low concentrations"}, {"measurement": "concentrations in skin, lungs, kidneys, peritoneum and lymphatics", "setting": "[11]", "value": "high concentrations"}]}]}
